How the values were obtained:
[1] = target: KRAS G12S binding to BRAF RBD (Homo sapiens (Human), UniProt P01116+P62937, G12S); experiment: Ras-Raf disruption/FRET/MOA assay, KRAS G12S; format: biochemical
From the text: (§1) Note—The following protocol describes a procedure for monitoring disruption of K-Ras G12C(GMP-PNP) binding to BRAF^RBD by a compound of the invention. This protocol may also be executed substituting other Ras proteins or nucleotides.
(§2) The purpose of this biochemical assay was to measure the ability of test compounds to facilitate ternary complex formation between a nucleotide-loaded K-Ras isoform and Cyclophilin A; the resulting ternary complex disrupts binding to a BRAF^RBD construct, inhibiting K-Ras signaling through a RAF effector. Data is reported as IC50 values.
(§3) Compound was present in plate wells as a 10-point 3-fold dilution series starting at a final concentration of 30 μM. After incubation at 25° C. for 3 hours, a mixture of Anti-His Eu—W1024 and anti-GST allophycocyanin was then added to assay sample wells at final concentrations of 10 nM and 50 nM, respectively, and the reaction incubated for an additional 1.5 hours. […] Compounds that facilitate disruption of a K-Ras: RAF complex were identified as those eliciting a decrease in the TR-FRET ratio relative to DMSO control wells.

[2] = target: K-Ras G12C(GMP-PNP) binding to BRAF RBD (Homo sapiens (Human), UniProt P01116+P62937, G12C); experiment: Disruption of BRAF RBD interaction with K-Ras (FRET / MOA assay), K-Ras G12C; format: biochemical; details: read-out: KRAS G12C FRET IC50
K-Ras G12C(GMP-PNP) binding to BRAF RBD, sequence (P01116 other isoform, or with tags, fused parts or gaps G12C): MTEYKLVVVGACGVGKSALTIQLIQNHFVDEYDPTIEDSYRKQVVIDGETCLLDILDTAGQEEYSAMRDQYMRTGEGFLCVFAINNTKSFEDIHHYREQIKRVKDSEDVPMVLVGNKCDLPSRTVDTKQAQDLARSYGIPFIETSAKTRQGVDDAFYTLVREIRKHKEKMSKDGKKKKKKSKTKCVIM
K-Ras G12C(GMP-PNP) binding to BRAF RBD, sequence (P62937 whole entry): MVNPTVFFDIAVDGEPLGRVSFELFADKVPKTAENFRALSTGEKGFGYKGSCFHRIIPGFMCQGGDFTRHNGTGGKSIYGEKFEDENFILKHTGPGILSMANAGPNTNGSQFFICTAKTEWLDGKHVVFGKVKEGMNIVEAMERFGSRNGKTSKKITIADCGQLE
Outline: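 TR-FRET readout: after 3 h compound incubation at 25 °C, anti-His Eu and anti-GST allophycocyanin (10 and 50 nM final) added for a further 1.5 h. Dilution series was 10-point, 3-fold, top 30 μM final. Ras–cyclophilin A ternary complex formation blocks the BRAF RBD interaction; IC50 derived from reduced FRET ratio relative to DMSO.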

[3] = target: KRAS G12V binding to BRAF RBD (Homo sapiens (Human), UniProt P01116+P62937, G12V); experiment: Ras-Raf disruption/FRET/MOA assay, KRAS G12V; format: biochemical; details: read-out: KRAS G12V FRET IC50
KRAS G12V binding to BRAF RBD, sequence (P01116 other isoform, or with tags, fused parts or gaps G12V): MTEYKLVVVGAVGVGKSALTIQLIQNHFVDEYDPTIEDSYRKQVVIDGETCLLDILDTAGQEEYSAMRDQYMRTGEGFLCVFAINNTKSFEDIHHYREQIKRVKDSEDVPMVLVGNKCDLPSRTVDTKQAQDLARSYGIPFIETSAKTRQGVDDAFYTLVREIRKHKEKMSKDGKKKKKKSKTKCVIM
KRAS G12V binding to BRAF RBD, sequence (P62937 whole entry): as the sequence (P62937 whole entry) above
From the text: as §1, §2, §3

[4] = target: KRAS WT binding to BRAF RBD (Homo sapiens (Human), UniProt P01116+P62937); experiment: Ras-Raf disruption/FRET/MOA assay, KRAS WT; format: biochemical
KRAS WT binding to BRAF RBD, sequence (P01116 other isoform, or with tags, fused parts or gaps): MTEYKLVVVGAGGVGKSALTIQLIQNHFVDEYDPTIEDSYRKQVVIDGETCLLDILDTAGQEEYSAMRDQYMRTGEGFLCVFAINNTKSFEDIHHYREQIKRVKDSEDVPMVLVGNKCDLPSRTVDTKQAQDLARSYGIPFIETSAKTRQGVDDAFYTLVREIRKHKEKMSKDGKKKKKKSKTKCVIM
KRAS WT binding to BRAF RBD, sequence (P62937 whole entry, the tested form may be a part): as the sequence (P62937 whole entry) above
From the text: Disruption of B-Raf Ras-binding Domain (BRAF^RBD) Interaction with K-Ras by Compounds of the Invention (also called a FRET assay or an MOA assay)
as §1, §2
as §3, with “In assay buffer containing 25 mM HEPES pH 7.3, 0.002% Tween20, 0.1% BSA, 100 mM NaCl and 5 mM MgCl2, tagless Cyclophilin A, His6-K-Ras-GMPPNP, and GST-BRAF^RBD were combined in a 384-well assay plate at final concentrations of 25 μM, 12.5 nM and 50 nM, respectively. Compound was” for “Compound was”

[5] = system: NCI-H358 cells (K-Ras G12C); experiment: CellTiter-Glo cell viability, NCI-H358; format: cell-based, human; details: Homo sapiens, NCI-H358, 120 h, K-Ras G12C, 5-day treatment; read-out: H358 Cell Viability IC50
Outline: (§4)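 Luminescence read on day 5 after ~30 min room-temperature equilibration; compounds added directly to plated cells. Values = (sample signal/avg DMSO)*100, four-parameter logistic fit.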

[6] = system: Capan-1 cells (K-Ras G12V); experiment: CellTiter-Glo cell viability, Capan-1; format: cell-based, human; details: Homo sapiens, CAPAN-1, 120 h, K-Ras G12V, 5-day treatment; read-out: Capan-1 Cell Viability IC50
Outline: as §4

NRAS Q61R = NRAS Q61R (Homo sapiens (Human), UniProt P01111+P62937, Q61R); experiment: Ras-Raf disruption/FRET/MOA assay (BRAF RBD, Cyclophilin A); format: biochemical
NRAS Q61R, sequence (P01111 whole entry Q61R): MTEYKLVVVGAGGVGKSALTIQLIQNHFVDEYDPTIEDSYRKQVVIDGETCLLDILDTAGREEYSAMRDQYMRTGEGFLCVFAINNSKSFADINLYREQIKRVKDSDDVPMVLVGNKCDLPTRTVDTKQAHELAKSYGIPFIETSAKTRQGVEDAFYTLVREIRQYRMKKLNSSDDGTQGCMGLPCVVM
NRAS Q61R, sequence (P62937 whole entry): as the sequence (P62937 whole entry) above
Outline: (§5)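 Measured: compound-facilitated Cyclophilin A:Ras complex blocking RAF RBD binding. Conditions: 12.5 nM Ras-GMPPNP, 50 nM BRAF RBD, 25 μM CypA, 3 h plus 1.5 h detection. Output: IC50 from TR-FRET ratio.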

NRAS WT = NRAS WT (Homo sapiens (Human), UniProt P01111+P62937); experiment: as above; format: biochemical
Outline: as §5

KRAS G12D = KRAS G12D (Homo sapiens (Human), UniProt P01116+P62937, G12D); experiment: as above; format: biochemical; details: read-out: KRAS G12D FRET IC50
KRAS G12D, sequence (P01116 other isoform, or with tags, fused parts or gaps G12D): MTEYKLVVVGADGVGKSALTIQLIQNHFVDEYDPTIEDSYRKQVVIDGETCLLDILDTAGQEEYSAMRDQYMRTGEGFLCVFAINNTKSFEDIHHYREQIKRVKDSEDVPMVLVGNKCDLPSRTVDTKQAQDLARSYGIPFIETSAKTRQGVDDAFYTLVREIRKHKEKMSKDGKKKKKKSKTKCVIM
KRAS G12D, sequence (P62937 whole entry): as the sequence (P62937 whole entry) above
Outline: (§6)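 Ras-GMPPNP (12.5 nM), BRAF RBD (50 nM) and 25 μM Cyclophilin A were incubated with compound for 3 h at 25° C, then detected 1.5 h with anti-His Eu and anti-GST APC; IC50 values follow from the reduced TR-FRET ratio.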

KRAS G12V = KRAS G12V (Homo sapiens (Human), UniProt P01116+P62937, G12V); experiment: as above; format: biochemical; details: read-out: KRAS G12V FRET IC50
Outline: as §6

NRAS Q61K = NRAS Q61K (Homo sapiens (Human), UniProt P01111+P62937, Q61K); experiment: as above; format: biochemical
NRAS Q61K, sequence (P01111 whole entry Q61K): as the sequence (P01111 whole entry Q61R) above, with R61K counted along it
NRAS Q61K, sequence (P62937 whole entry): as the sequence (P62937 whole entry) above
Outline: as §5

NRAS G12C = NRAS G12C (Homo sapiens (Human), UniProt P01111+P62937, G12C); experiment: as above; format: biochemical; details: read-out: NRAS G12C FRET data IC50
Outline: as §5

KRAS G13C = KRAS G13C (Homo sapiens (Human), UniProt P01116+P62937, G13C); experiment: as above; format: biochemical; details: read-out: KRAS G13C FRET IC50
Outline: as §6

KRAS G12S = KRAS G12S (Homo sapiens (Human), UniProt P01116+P62937, G12S); experiment: as above; format: biochemical; details: read-out: KRAS G12S FRET IC50
KRAS G12S, sequence (P01116 other isoform, or with tags, fused parts or gaps G12S): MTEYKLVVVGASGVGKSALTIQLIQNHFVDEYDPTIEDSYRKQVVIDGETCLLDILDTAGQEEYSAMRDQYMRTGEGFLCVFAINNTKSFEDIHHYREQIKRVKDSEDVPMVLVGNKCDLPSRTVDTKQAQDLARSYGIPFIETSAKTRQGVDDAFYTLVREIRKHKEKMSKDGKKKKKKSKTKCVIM
KRAS G12S, sequence (P62937 whole entry): as the sequence (P62937 whole entry) above
Outline: as §6

KRAS Q61H = KRAS Q61H (Homo sapiens (Human), UniProt P01116+P62937, Q61H); experiment: as above; format: biochemical
KRAS Q61H, sequence (P01116 other isoform, or with tags, fused parts or gaps Q61H): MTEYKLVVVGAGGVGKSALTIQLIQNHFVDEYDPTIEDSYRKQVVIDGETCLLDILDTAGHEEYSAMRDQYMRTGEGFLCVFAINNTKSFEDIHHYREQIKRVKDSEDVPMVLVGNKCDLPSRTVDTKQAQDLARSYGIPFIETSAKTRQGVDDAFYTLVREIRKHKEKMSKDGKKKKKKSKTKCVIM
KRAS Q61H, sequence (P62937 whole entry): as the sequence (P62937 whole entry) above
Outline: as §6

KRAS G12C = KRAS G12C (Homo sapiens (Human), UniProt P01116+P62937, G12C); experiment: as above; format: biochemical; details: read-out: KRAS G12C FRET IC50
KRAS G12C, sequence (P01116-2 other isoform, or with tags, fused parts or gaps G12C): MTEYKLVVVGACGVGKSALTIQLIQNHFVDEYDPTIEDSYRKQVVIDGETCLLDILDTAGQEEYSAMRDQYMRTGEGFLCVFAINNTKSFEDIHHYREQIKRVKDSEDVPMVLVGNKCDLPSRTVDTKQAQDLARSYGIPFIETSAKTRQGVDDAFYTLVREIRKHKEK
KRAS G12C, sequence (P62937 whole entry): as the sequence (P62937 whole entry) above
Outline: as §6

KRAS G13D = KRAS G13D (Homo sapiens (Human), UniProt P01116+P62937, G13D); experiment: as above; format: biochemical; details: read-out: KRAS G13D FRET data IC50
KRAS G13D, sequence (P01116 other isoform, or with tags, fused parts or gaps G13D): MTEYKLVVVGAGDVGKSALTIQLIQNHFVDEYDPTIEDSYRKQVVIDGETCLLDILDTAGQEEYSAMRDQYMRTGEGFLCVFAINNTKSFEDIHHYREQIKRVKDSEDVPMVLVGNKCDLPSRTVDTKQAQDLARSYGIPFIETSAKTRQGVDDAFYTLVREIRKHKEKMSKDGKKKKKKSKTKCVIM
KRAS G13D, sequence (P62937 whole entry): as the sequence (P62937 whole entry) above
Outline: as §6

KRAS WT = KRAS WT (Homo sapiens (Human), UniProt P01116+P62937); experiment: as above; format: biochemical; details: read-out: KRAS WT FRET data IC50
KRAS WT, sequence (P01116 other isoform, or with tags, fused parts or gaps): as the sequence (P01116 other isoform, or with tags, fused parts or gaps) above
KRAS WT, sequence (P62937 whole entry): as the sequence (P62937 whole entry) above
Outline: as §6

NCI-H358 (K-Ras G12C) = experiment: CellTiter-Glo cell viability assay, NCI-H358; format: cell-based, human; details: Homo sapiens, NCI-H358, 120 h, 5-day treatment; read-out: H358 Cell Viability assay data (K-Ras G12C, IC50)
Outline: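 Luminescent CellTiter-Glo read-out on day 5 after compound exposure; signal expressed as percent of mean DMSO control; four-parameter logistic fit gives the value.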

[7] = target: NRAS G12C binding to BRAF RBD (Homo sapiens (Human), UniProt P01111+P62937, G12C); experiment: Ras-Raf disruption/FRET/MOA assay, NRAS G12C; format: biochemical
From the text: as §1, §2, §3

[8] = system: K-Ras G12C (NCI-H358 cells); experiment: Potency assay: pERK in NCI-H358 cells; format: cell-based, human; details: Homo sapiens; NCI-H358 cells, 4 hours; read-out: pERK EC50 (H358 KRAS G12C)
Outline: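 Cells plated the day before were exposed for 4 h at 37° C, 5% CO2 to a 10-point, 3-fold DMSO dilution series (10 mM top stock), in duplicate. Phospho-ERK was read by AlphaLISA SureFire Ultra or by In-Cell Western with DRAQ5 DNA stain, and IC50 came from a 4-parameter sigmoidal fit.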

[9] = target: KRAS G13D binding to BRAF RBD (Homo sapiens (Human), UniProt P01116+P62937, G13D); experiment: Ras-Raf disruption/FRET/MOA assay, KRAS G13D; format: biochemical
KRAS G13D binding to BRAF RBD, sequence (P01116 other isoform, or with tags, fused parts or gaps G13D): as the sequence (P01116 other isoform, or with tags, fused parts or gaps G13D) above
KRAS G13D binding to BRAF RBD, sequence (P62937 whole entry): as the sequence (P62937 whole entry) above
Outline: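 First, test compounds in a 10-point 3-fold series (30 μM final top) were incubated for 3 hours at 25° C with nucleotide-loaded Ras, cyclophilin A and a BRAF RBD construct. Next, Eu anti-His and allophycocyanin anti-GST detection reagents were added for 1.5 hours. Finally, IC50s were derived from loss of TR-FRET signal against DMSO.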

KRAS G12S binding to BRAF RBD, sequence (P01116 other isoform, or with tags, fused parts or gaps G12S): as the sequence (P01116 other isoform, or with tags, fused parts or gaps G12S) above
KRAS G12S binding to BRAF RBD, sequence (P62937 whole entry): as the sequence (P62937 whole entry) above

CCn1c(-c2cccnc2[C@H](C)OC)c2c3cc(ccc31)-c1cc(O)cc(c1)C[C@H](NC(=O)C(C1CC1)C1CC1)C(=O)N1CCC[C@H](N1)C(=O)OCC(C)(C)C2 [Compound A184]
< 0.01 µM: IC50 [2]
0.01 to 0.1 µM: IC50 [1] | IC50 [3]

CCn1c(-c2cccnc2[C@H](C)OC)c2c3cc(ccc31)-c1csc(n1)C[C@H](NC(=O)N1CC[C@@H]1COC)C(=O)N1CCC[C@H](N1)C(=O)OCC(C)(C)C2 [Compound A264]
0.01 to 0.1 µM: IC50 [4] | IC50 [1] | IC50 [2] | IC50 [3] | IC50 (KRAS G12V) | IC50 (NRAS G12C) | IC50 (KRAS G12C) | IC50 (NCI-H358 (K-Ras G12C))
0.1 to 1 µM: IC50 [5] | IC50 [6] | IC50 (NRAS Q61R) | IC50 (NRAS WT) | IC50 (KRAS G12D) | IC50 (NRAS Q61K) | IC50 (KRAS G13C) | IC50 (KRAS G12S) | IC50 (KRAS Q61H) | IC50 (KRAS G13D) | IC50 (KRAS WT)

CCn1c(-c2cccnc2[C@H](C)OC)c2c3cc(ccc31)-c1cc(O)cc(c1)C[C@H](NC(=O)[C@H](C(C)C)N(C)C(=O)[C@H]1CCC(C(=O)C#CCOC)C1)C(=O)N1CCC[C@H](N1)C(=O)OCC(C)(C)C2 (stereo partly drawn) [Compound A266]
0.01 to 0.1 µM: IC50 [1] | IC50 [3]
0.1 to 1 µM: IC50 [9]
< 5 µM: EC50 [8]
< 0.01 µM: IC50 [2] | IC50 [7] | IC50 (NCI-H358 (K-Ras G12C))

CCn1c(-c2cccnc2[C@H](C)OC)c2c3cc(ccc31)-c1csc(n1)C[C@H](NC(=O)[C@H](C(C)C)N(C)C(=O)N1CCCC[C@@H](N(C)C)C1)C(=O)N1CCC[C@H](N1)C(=O)OCC(C)(C)C2 [Compound A492]
0.01 to 0.1 µM: IC50 [4] | IC50 [1] | IC50 [5] | IC50 [2] | IC50 [3]
< 5 µM: EC50 [8]
< 0.01 µM: IC50 (NCI-H358 (K-Ras G12C))

From patent publication US20250195521A1 (Revolution Medicines, Inc., priority 2020, published 2025)
